Assay results: patent publication US8084466B2, “Bicyclic heteroaryl-substituted imidazoles as modulators of the histamine H4 receptor” (Janssen Pharmaceutica NV, priority 2007, dated 2011)
pKi: −log10 of the molar value.

What follows are compounds tested against T1, human histamine H4 receptor (Homo sapiens, UniProt Q9H3N8) (assay: Binding Assay on Recombinant Human Histamine H4 Receptor). Conditions: competition binding with 3H-histamine (5 nM; KD 5 nM), membranes of SK-N-MC or COS7 cells expressing human H4 receptor; average of results; > = highest value tested.
T1 construct: expressed in transfected cells; host or cells: SK-N-MC cells or COS7 cells, transient transfection with pH4R; cell membranes
How it was run: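 Membranes from SK-N-MC or COS7 cells transiently transfected with H4R incubated 45 min at room temperature with ³H-histamine; nonspecific binding defined with 10,000 nM histamine. Filtration and scintillation counting. Ki from competition with 5 nM ³H-histamine, using a KD of 5 nM.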

pKi	SMILES
5.66	FC(F)(F)c1ccc2nc(-c3cccc4c3ccn4CCCCC3CCNCC3)[nH]c2c1 [Example 141, 2-[1-(4-Piperidin-4-yl-butyl)-1H-indol-4-yl]-6-trifluoromethyl-1H-benzoimidazole]
8.15	Cc1nc(-c2ccc3c(ncn3CCCC3CCN(C)CC3)c2C)[nH]c1-c1ccc(C(F)(F)F)cc1 [Example 142, 4-Methyl-1-[3-(1-methyl-piperidin-4-yl)-propyl]-5-[4-methyl-5-(4-trifluoromethyl-phenyl)-1H-imidazol-2-yl]-1H-benzoimidazole]
9.00	COc1ccc(-c2[nH]c(-c3ccc4c(ncn4CCCC4CCN(C)CC4)c3C)nc2C)cc1 [Example 143, 5-[5-(4-Methoxy-phenyl)-4-methyl-1H-imidazol-2-yl]-4-methyl-1-[3-(1-methyl-piperidin-4-yl)-propyl]-1H-benzoimidazole]
